Source: article PMC8491162, “Targeting the JAK/STAT Pathway: A Combined Ligand- and Target-Based Approach” (Journal of Chemical Information and Modeling, 2021)
Counter-ions that a name gives are not always drawn. Like-named read-outs stand apart in the source and are kept apart here.

Experiments:
JAK2 [1] = target: T1, JAK2 (Homo sapiens, UniProt O60674); test: JAK2 activity assay (JAK2 assay kit, BPS Bioscience; Kinase Glo Max luminescence); type: biochemical
T1 construct: purchased BPS Bioscience
T1 sequence (O60674 whole entry): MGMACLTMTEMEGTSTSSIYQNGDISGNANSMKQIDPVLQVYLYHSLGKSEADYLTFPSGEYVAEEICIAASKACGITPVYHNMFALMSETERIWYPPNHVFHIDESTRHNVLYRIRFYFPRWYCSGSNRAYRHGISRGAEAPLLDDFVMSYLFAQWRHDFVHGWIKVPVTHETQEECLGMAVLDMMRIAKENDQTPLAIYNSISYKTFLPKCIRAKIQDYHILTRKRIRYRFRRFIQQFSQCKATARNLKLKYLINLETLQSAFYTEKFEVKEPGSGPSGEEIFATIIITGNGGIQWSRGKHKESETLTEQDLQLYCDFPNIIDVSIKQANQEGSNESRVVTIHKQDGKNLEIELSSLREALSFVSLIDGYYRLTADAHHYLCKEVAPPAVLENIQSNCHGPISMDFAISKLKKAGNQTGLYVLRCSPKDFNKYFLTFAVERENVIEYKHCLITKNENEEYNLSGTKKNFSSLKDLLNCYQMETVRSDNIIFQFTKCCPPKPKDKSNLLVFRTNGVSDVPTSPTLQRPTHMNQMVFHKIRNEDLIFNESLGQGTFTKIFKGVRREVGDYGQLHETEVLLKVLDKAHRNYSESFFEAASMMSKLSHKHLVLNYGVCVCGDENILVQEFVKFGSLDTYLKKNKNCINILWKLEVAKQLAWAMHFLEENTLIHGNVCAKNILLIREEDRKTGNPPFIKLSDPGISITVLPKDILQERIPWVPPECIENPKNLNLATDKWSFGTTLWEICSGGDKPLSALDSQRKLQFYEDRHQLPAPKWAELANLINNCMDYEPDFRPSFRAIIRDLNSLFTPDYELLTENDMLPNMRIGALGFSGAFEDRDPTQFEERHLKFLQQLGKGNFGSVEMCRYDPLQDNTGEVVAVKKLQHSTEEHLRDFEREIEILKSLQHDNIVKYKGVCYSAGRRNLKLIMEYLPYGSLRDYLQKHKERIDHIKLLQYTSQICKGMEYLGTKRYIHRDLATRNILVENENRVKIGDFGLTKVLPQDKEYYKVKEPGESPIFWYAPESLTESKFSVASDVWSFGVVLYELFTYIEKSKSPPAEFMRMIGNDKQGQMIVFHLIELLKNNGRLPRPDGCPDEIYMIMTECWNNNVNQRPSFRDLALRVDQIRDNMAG
Method: According to the manufacturer’s instructions, the assay was performed in a white 96-well plate, in a total volume of 50 μL, adding a 5× kinase assay buffer, ATP (500 μM), protein tyrosine kinase substrate (10 mg/mL), water, tested molecules diluted in 0.1% DMSO solution, and JAK2 enzyme (2.5 ng/μL).
After 15 min of incubation at room temperature, the luminescence was measured by EnSpire Multimode Plate Reader (Perkin Elmer). All measurements were performed in triplicates for each compound, and the concentration range tested was 0.1–10 000 nM.

SH-SY5Y cells = test: MTT cell viability assay; type: cell-based, Human; settings: 100 μM, after 5 or 24 h, vs vehicle control
Method: Human SH-SY5Y neuroblastoma cells purchased from ICLC-IST (Genoa, Italy), were cultured in Dulbecco’s modified Eagle’s medium (DMEM), supplemented with 10% (v/v) fetal bovine serum (FBS), 100 units/mL penicillin, 100 μg/mL streptomycin, and 2 mM glutamine. Cells were incubated at 37 °C in a humidified atmosphere containing 5% CO2 and were allowed to reach 80% confluence before starting treatments. All reagents employed for cell culture were purchased from Lonza (Milan, Italy).
Drugs effects on cell viability were measured using the MTT [3-(4,5-dimethylthiazol-2-yl)-2,5-diphenyltetrazolium bromide] assay.[40] All reagents were purchased from Sigma-Aldrich (Milan, Italy) unless otherwise indicated. Briefly, cells were plated on 24-well plates at a density of 3 × 10^4 cells/well and were grown to reach 80% confluence. Cells were treated with vehicle (DMEM containing 0.1% dimethyl sulfoxide (DMSO)) or drugs dissolved in vehicle at the final concentrations of 1, 10, or 100 μM. After 5 or 24 h, the culture medium was removed and replaced with fresh DMEM containing the MTT solution (0.5 mg/mL) and cells were incubated in the dark for 3 h at 37 °C. […] The optical densities (ODs) were then recorded using a microplate spectrophotometer (GENios Tecan, Austria) at 590 nm. Results were expressed as a percentage of OD values of drug-treated cell cultures compared to vehicle-treated ones.

JAK2 [2] = target: T1, JAK2; parameters: method as in earlier work; settings: Figure 13; read-out: IC50 of commercially available JAK2 inhibitors; cited from earlier work
[3] = Solubility for in vitro testing; type: physicochemical; settings: reason for not testing in vitro
[4] = 95% confidence limits in brackets, triplicates, read-out: IC50 in the enzymatic assay for JAK2 inhibition
[5] = as quoted in abstract and conclusions, read-out: IC50 against JAK2

| IC50 (JAK2 [1]; [4]) [µM] | Structure (SMILES) | IC50 (JAK2 [2]) [µM] | further results |
| --- | --- | --- | --- |
| 0.637 | NS(=O)(=O)c1ccc(NC(=O)Cn2cnc3scc(-c4ccco4)c3c2=O)cc1 [Compound 7] |  | IC50 (JAK2 [1]; [5]): 0.64 µM |
| > 10 | COC(=O)C1=C(C)NC(C)=C(C(=O)OCCN2CCN(C(=O)c3ccco3)CC2)C1c1cccc([N+](=O)[O-])c1 (stereo not shown) [Compound 8] |  | Cell viability (MTT) (SH-SY5Y cells): significant decrease |
| > 10 | COc1cccc(C2C(C#N)=C(N)Oc3[nH]nc(C)c32)c1 (stereo not shown) [Compound 3] |  |  |
| > 10 | CC(=O)c1oc2ccccc2c1N [Compound 1] |  |  |
| > 10 | O=C(O)CSc1nnc2n1CCCN2 [Compound 6] |  | Cell viability (MTT) (SH-SY5Y cells): significant decrease |
| 0.807 | O=C1C2C3C=CC(CO)(O3)C2C(=O)N1c1cccc([N+](=O)[O-])c1 (stereo not shown) [Compound 4] |  | IC50 (JAK2 [1]; [5]): 0.81 µM |
|  | CC(CCc1ccccn1)(CCc1ccccn1)C(=O)c1ccccc1 [NSC 42834] | 15 |  |
| > 10 | Cc1n[nH]c(C)c1C(=O)CC1(O)C(=O)N(Cc2ccccc2)c2ccccc21 (stereo not shown) [Compound 5] |  |  |
|  | C[C@H](NC(=O)/C(C#N)=C/c1cccc(Br)n1)c1ccccc1 [WP1066] | 2.3 |  |
|  | CC(=O)Nc1cc(Oc2ccc3c(nc(Nc4ccc(F)cc4F)n3C)c2C)ccn1 [CHZ868] | 0.17 |  |
|  | CCCC1(CCC)CCC2(CCN(CCCN(CC)CC)C2)CC1 [Atiprimod dihydrochloride] | 0.4 |  |
|  | COCCNC(=O)c1cc2c(=O)n3cccc(C)c3nc2n(Cc2ccco2)c1=N [Compound 2] |  | Solubility [3]: solubility problems |
